Reference: US9340600B2 (Indiana University Research and Technology Corporation, priority 2012, dated 2016)
pEC50: −log10 of the molar value. *1 amine or outer side, *2 acyl side, *3 side chain or, on linkers, in order; H or OH if unused. Where a SMILES comes first, the peptide text is derived from it. Side-chain parts run from the residue outwards. [ ]: non-standard residue; d: D form. The star is where a group is joined. γGlu = O=C(O)[C@H](CCC(=O)[*:2])N[*:1]; Met(O2) = CS(=O)(=O)CC[C@H](N)C(=O)O; Palmitoyl = CCCCCCCCCCCCCCCC(=O)*; Aib = CC(C)(N)C(=O)O

How the values were obtained:
GIP receptor [1] = target: T1, GIP receptor (Homo sapiens, UniProt P48546); details: cited from earlier work
T1 construct: expressed in transfected cells; host or cells: HEK293
T1 sequence (P48546 22-466): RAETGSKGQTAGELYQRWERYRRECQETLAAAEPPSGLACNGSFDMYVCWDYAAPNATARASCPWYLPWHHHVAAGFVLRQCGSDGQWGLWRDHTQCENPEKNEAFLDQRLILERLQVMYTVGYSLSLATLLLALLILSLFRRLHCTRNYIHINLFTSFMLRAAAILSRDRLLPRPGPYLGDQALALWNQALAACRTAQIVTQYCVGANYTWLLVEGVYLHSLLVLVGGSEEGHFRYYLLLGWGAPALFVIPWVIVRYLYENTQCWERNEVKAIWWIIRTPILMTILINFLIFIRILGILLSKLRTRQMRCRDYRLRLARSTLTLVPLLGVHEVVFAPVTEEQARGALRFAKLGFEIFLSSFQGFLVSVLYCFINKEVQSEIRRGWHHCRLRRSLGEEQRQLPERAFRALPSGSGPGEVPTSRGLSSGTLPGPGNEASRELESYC

glucagon receptor = target: T2, glucagon receptor (Homo sapiens, UniProt P47871); experiment: cAMP induction, firefly luciferase-based reporter assay in HEK293 cells co-transfected with glucagon receptor; assay type: cell-based; details: EC50 at Glucagon Receptor
T2 construct: expressed in transfected cells; host or cells: HEK293
T2 sequence (P47871 26-477): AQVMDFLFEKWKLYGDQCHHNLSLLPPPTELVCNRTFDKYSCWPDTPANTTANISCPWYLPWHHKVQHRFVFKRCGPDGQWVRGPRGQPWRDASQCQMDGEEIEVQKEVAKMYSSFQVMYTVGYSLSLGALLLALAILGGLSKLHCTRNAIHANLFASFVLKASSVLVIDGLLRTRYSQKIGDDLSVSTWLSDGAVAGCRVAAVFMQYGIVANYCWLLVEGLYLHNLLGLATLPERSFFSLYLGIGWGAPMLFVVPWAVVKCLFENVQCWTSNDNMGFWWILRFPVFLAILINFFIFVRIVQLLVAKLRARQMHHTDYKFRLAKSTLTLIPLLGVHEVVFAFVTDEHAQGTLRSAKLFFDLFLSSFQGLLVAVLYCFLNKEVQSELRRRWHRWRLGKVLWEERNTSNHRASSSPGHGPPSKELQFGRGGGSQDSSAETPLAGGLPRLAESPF
From the text: (§1) This example describes an exemplary method of testing the biological activity of the peptides of the present disclosures, which method involves assaying cAMP synthesis.

GLP-1 receptor = target: T3, GLP-1 receptor (Homo sapiens, UniProt P43220); experiment: cAMP induction, firefly luciferase-based reporter assay in HEK293 cells co-transfected with GLP-1 receptor; assay type: cell-based; details: EC50 at GLP-1 Receptor
T3 construct: expressed in transfected cells; host or cells: HEK293
T3 sequence (P43220 24-463): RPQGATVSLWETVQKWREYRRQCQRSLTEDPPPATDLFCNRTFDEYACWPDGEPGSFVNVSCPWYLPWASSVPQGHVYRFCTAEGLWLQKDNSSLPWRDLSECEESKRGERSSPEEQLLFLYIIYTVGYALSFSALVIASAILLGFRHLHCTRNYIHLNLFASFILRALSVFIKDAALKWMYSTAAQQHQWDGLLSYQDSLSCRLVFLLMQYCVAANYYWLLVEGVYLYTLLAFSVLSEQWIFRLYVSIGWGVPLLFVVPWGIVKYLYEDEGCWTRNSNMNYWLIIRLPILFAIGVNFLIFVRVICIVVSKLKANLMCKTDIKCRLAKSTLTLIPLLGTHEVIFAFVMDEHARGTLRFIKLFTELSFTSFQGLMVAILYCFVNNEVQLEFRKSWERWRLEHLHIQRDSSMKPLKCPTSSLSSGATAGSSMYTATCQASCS
From the text: as §1

GIP receptor [2] = target: T1, GIP receptor; experiment: cAMP induction, firefly luciferase-based reporter assay in HEK293 cells co-transfected with GIP receptor; assay type: cell-based; details: EC50 at GIP Receptor
From the text: as §1

[3] = Table 2, analogs of SEQ ID NO: 18 varying at positions 16-21
[4] = Table 3, analogs of SEQ ID NO: 18 varying at position 3
[5] = Table 5, analogs of SEQ ID NO: 10

What does the source list for “Native glucagon: native human glucagon (SEQ ID NO: 1)”?
activation of the GIP receptor (GIP receptor [1]): does not activate the GIP receptor; activity of native GIP at the GIP receptor (GIP receptor [1]; relative to native GIP): ~0%

With `CCCCCCCCCCCCCCCC(=O)N[C@@H](CCC(=O)NCCCC[C@H](NC(=O)[C@H](CC(=O)O)NC(=O)[C@H](CO)NC(=O)[C@@H](NC(=O)[C@H](Cc1ccccc1)NC(=O)[C@@H](NC(=O)CNC(=O)[C@H](CCC(N)=O)NC(=O)C(C)(C)NC(=O)[C@@H](N)Cc1c[nH]cn1)[C@@H](C)O)[C@@H](C)O)C(=O)N[C@@H](CO)C(=O)N[C@@H](CCCCN)C(=O)N[C@@H](Cc1ccc(O)cc1)C(=O)N[C@@H](CC(C)C)C(=O)N[C@@H](CC(=O)O)C(=O)N[C@@H](CCC(=O)O)C(=O)N[C@@H](CCC(N)=O)C(=O)N[C@@H](C)C(=O)N[C@@H](C)C(=O)NC(C)(C)C(=O)N[C@@H](CCC(=O)O)C(=O)N[C@@H](Cc1ccccc1)C(=O)N[C@H](C(=O)N[C@@H](CCC(N)=O)C(=O)N[C@@H](Cc1c[nH]c2ccccc12)C(=O)N[C@@H](CC(C)C)C(=O)N[C@@H](CC(C)C)C(=O)N[C@@H](CC(=O)O)C(=O)NCC(=O)NCC(=O)N1CCC[C@H]1C(=O)N[C@@H](CO)C(=O)N[C@@H](CO)C(=O)NCC(=O)N[C@@H](C)C(=O)N1CCC[C@H]1C(=O)N1CCC[C@H]1C(=O)N1CCC[C@H]1C(=O)N[C@@H](CO)C(N)=O)C(C)C)C(=O)O` [compound 26] (H-H[Aib]QGTFTSDK([γGlu-Palmitoyl])SKYLDEQAA[Aib]EFVQWLLDGGPSSGAPPPS-NH2) as the molecule, how does the pEC50 (glucagon receptor; [3]) read?
The pEC50 was 11.40.

And the pEC50 (GLP-1 receptor; [3])?
Its pEC50 is 12.00.

What about the pEC50 (GIP receptor [2]; [3]) of the same molecule?
The pEC50 was 12.00.

With `CCCCCCCCCCCCCCCC(=O)N[C@@H](CCC(=O)NCCCC[C@H](NC(=O)[C@H](CC(=O)O)NC(=O)[C@H](CO)NC(=O)[C@@H](NC(=O)[C@H](Cc1ccccc1)NC(=O)[C@@H](NC(=O)CNC(=O)[C@H](CCS(C)(=O)=O)NC(=O)C(C)(C)NC(=O)[C@@H](N)Cc1c[nH]cn1)[C@@H](C)O)[C@@H](C)O)C(=O)N[C@@H](CO)C(=O)N[C@@H](CCCCN)C(=O)N[C@@H](Cc1ccc(O)cc1)C(=O)N[C@@H](CC(C)C)C(=O)N[C@@H](CCC(=O)O)C(=O)N[C@@H](CCC(=O)O)C(=O)N[C@@H](CCCNC(=N)N)C(=O)N[C@@H](C)C(=O)N[C@@H](C)C(=O)N[C@@H](CCC(N)=O)C(=O)N[C@@H](CCC(=O)O)C(=O)N[C@@H](Cc1ccccc1)C(=O)N[C@H](C(=O)N[C@@H](CCC(N)=O)C(=O)N[C@@H](Cc1c[nH]c2ccccc12)C(=O)N[C@@H](CC(C)C)C(=O)N[C@@H](CC(C)C)C(=O)N[C@@H](CCC(=O)O)C(=O)NCC(=O)NCC(=O)N1CCC[C@H]1C(=O)N[C@@H](CO)C(=O)N[C@@H](CO)C(=O)NCC(=O)N[C@@H](C)C(=O)N1CCC[C@H]1C(=O)N1CCC[C@H]1C(=O)N1CCC[C@H]1C(=O)N[C@@H](CO)C(N)=O)C(C)C)C(=O)O` [compound 41] (H-H[Aib][Met(O2)]GTFTSDK([γGlu-Palmitoyl])SKYLEERAAQEFVQWLLEGGPSSGAPPPS-NH2; N-terminus assumed) as the molecule, how does the pEC50 (glucagon receptor; [4]) read?
The pEC50 was 9.23.

And the pEC50 (GLP-1 receptor; [4])?
The pEC50 was 11.70.

And the pEC50 (GIP receptor [2]; [4])?
Its pEC50 is 10.17.

What does the source list for `CCCCCCCCCCCCCCCC(=O)N[C@@H](CCC(=O)NCCCC[C@H](NC(=O)[C@H](CC(=O)O)NC(=O)[C@H](CO)NC(=O)[C@@H](NC(=O)[C@H](Cc1ccccc1)NC(=O)[C@@H](NC(=O)CNC(=O)[C@H](CCSC)NC(=O)C(C)(C)NC(=O)[C@@H](N)Cc1c[nH]cn1)[C@@H](C)O)[C@@H](C)O)C(=O)N[C@@H](CO)C(=O)N[C@@H](CCCCN)C(=O)N[C@@H](Cc1ccc(O)cc1)C(=O)N[C@@H](CC(C)C)C(=O)N[C@@H](CCC(=O)O)C(=O)N[C@@H](CCC(=O)O)C(=O)N[C@@H](CCCNC(=N)N)C(=O)N[C@@H](C)C(=O)N[C@@H](C)C(=O)N[C@@H](CCC(N)=O)C(=O)N[C@@H](CCC(=O)O)C(=O)N[C@@H](Cc1ccccc1)C(=O)N[C@H](C(=O)N[C@@H](CCC(N)=O)C(=O)N[C@@H](Cc1c[nH]c2ccccc12)C(=O)N[C@@H](CC(C)C)C(=O)N[C@@H](CC(C)C)C(=O)N[C@@H](CCC(=O)O)C(=O)NCC(=O)NCC(=O)N1CCC[C@H]1C(=O)N[C@@H](CO)C(=O)N[C@@H](CO)C(=O)NCC(=O)N[C@@H](C)C(=O)N1CCC[C@H]1C(=O)N1CCC[C@H]1C(=O)N1CCC[C@H]1C(=O)N[C@@H](CO)C(N)=O)C(C)C)C(=O)O` [compound 31] (H-H[Aib]MGTFTSDK([γGlu-Palmitoyl])SKYLEERAAQEFVQWLLEGGPSSGAPPPS-NH2; N-terminus assumed)?
pEC50 (glucagon receptor; [4]): 10.52; pEC50 (GLP-1 receptor; [4]): 11.70; pEC50 (GIP receptor [2]; [4]): 11.30

With `CCCCCCCCCCCCCCCC(=O)N[C@@H](CCC(=O)NCCCC[C@H](NC(=O)[C@H](CC(=O)O)NC(=O)[C@H](CO)NC(=O)[C@@H](NC(=O)[C@H](Cc1ccccc1)NC(=O)[C@@H](NC(=O)CNC(=O)[C@H](CCC(N)=O)NC(=O)C(C)(C)NC(=O)[C@@H](N)Cc1c[nH]cn1)[C@@H](C)O)[C@@H](C)O)C(=O)N[C@@H](CO)C(=O)N[C@@H](CCCCN)C(=O)N[C@@H](Cc1ccc(O)cc1)C(=O)N[C@@H](CC(C)C)C(=O)N[C@@H](CC(=O)O)C(=O)N[C@@H](C)C(=O)N[C@@H](CCCNC(=N)N)C(=O)N[C@@H](C)C(=O)N[C@@H](C)C(=O)NC(C)(C)C(=O)N[C@@H](CCC(=O)O)C(=O)N[C@@H](Cc1ccccc1)C(=O)N[C@H](C(=O)N[C@@H](CCC(N)=O)C(=O)N[C@@H](Cc1c[nH]c2ccccc12)C(=O)N[C@@H](CC(C)C)C(=O)N[C@@H](CC(C)C)C(=O)N[C@@H](CC(=O)O)C(=O)NCC(=O)NCC(=O)N1CCC[C@H]1C(=O)N[C@@H](CO)C(=O)N[C@@H](CO)C(=O)NCC(=O)N[C@@H](C)C(=O)N1CCC[C@H]1C(=O)N1CCC[C@H]1C(=O)N1CCC[C@H]1C(=O)N[C@@H](CO)C(N)=O)C(C)C)C(=O)O` [compound 22] (H-H[Aib]QGTFTSDK([γGlu-Palmitoyl])SKYLDARAA[Aib]EFVQWLLDGGPSSGAPPPS-NH2) as the molecule, how does the pEC50 (glucagon receptor; [3]) read?
The pEC50 was 11.30.

What about the pEC50 (GLP-1 receptor; [3]) of the same molecule?
The pEC50 was 10.96.

And the pEC50 (GIP receptor [2]; [3])?
Its pEC50 is 11.40.

With `CCCCCCCCCCCCCCCC(=O)N[C@@H](CCC(=O)NCCCC[C@H](NC(=O)[C@H](CC(=O)O)NC(=O)[C@H](CO)NC(=O)[C@@H](NC(=O)[C@H](Cc1ccccc1)NC(=O)[C@@H](NC(=O)CNC(=O)[C@H](CCC(N)=O)NC(=O)C(C)(C)NC(=O)[C@@H](N)Cc1c[nH]cn1)[C@@H](C)O)[C@@H](C)O)C(=O)N[C@@H](CO)C(=O)N[C@@H](CCCCN)C(=O)N[C@@H](Cc1ccc(O)cc1)C(=O)N[C@@H](CC(C)C)C(=O)N[C@@H](CC(=O)O)C(=O)N[C@@H](Cc1c[nH]cn1)C(=O)N[C@@H](CCCNC(=N)N)C(=O)N[C@@H](C)C(=O)N[C@@H](C)C(=O)NC(C)(C)C(=O)N[C@@H](CCC(=O)O)C(=O)N[C@@H](Cc1ccccc1)C(=O)N[C@H](C(=O)N[C@@H](CCC(N)=O)C(=O)N[C@@H](Cc1c[nH]c2ccccc12)C(=O)N[C@@H](CC(C)C)C(=O)N[C@@H](CC(C)C)C(=O)N[C@@H](CC(=O)O)C(=O)NCC(=O)NCC(=O)N1CCC[C@H]1C(=O)N[C@@H](CO)C(=O)N[C@@H](CO)C(=O)NCC(=O)N[C@@H](C)C(=O)N1CCC[C@H]1C(=O)N1CCC[C@H]1C(=O)N1CCC[C@H]1C(=O)N[C@@H](CO)C(N)=O)C(C)C)C(=O)O` [compound 25] (H-H[Aib]QGTFTSDK([γGlu-Palmitoyl])SKYLDHRAA[Aib]EFVQWLLDGGPSSGAPPPS-NH2; N-terminus assumed) as the molecule, how does the pEC50 (glucagon receptor; [3]) read?
Its pEC50 is 11.30.

And the pEC50 (GLP-1 receptor; [3])?
Its pEC50 is 11.40.

What about the pEC50 (GIP receptor [2]; [3]) of the same molecule?
The pEC50 was 11.52.

With `CCCCCCCCCCCCCCCC(=O)N[C@@H](CCC(=O)NCCCC[C@H](NC(=O)[C@H](CC(=O)O)NC(=O)[C@H](CO)NC(=O)[C@@H](NC(=O)[C@H](Cc1ccccc1)NC(=O)[C@@H](NC(=O)CNC(=O)[C@H](CCC(N)=O)NC(=O)C(C)(C)NC(=O)[C@@H](N)Cc1c[nH]cn1)[C@@H](C)O)[C@@H](C)O)C(=O)N[C@@H](CO)C(=O)N[C@@H](CCCCN)C(=O)N[C@@H](Cc1ccc(O)cc1)C(=O)N[C@@H](CC(C)C)C(=O)N[C@@H](CC(=O)O)C(=O)N[C@@H](CCC(=O)O)C(=O)N[C@@H](CCCNC(=N)N)C(=O)N[C@@H](C)C(=O)N[C@@H](C)C(=O)N[C@@H](CCC(N)=O)C(=O)N[C@@H](CC(=O)O)C(=O)N[C@@H](Cc1ccccc1)C(=O)N[C@H](C(=O)N[C@@H](CCC(N)=O)C(=O)N[C@@H](Cc1c[nH]c2ccccc12)C(=O)N[C@@H](CC(C)C)C(=O)N[C@@H](CC(C)C)C(=O)N[C@@H](CC(=O)O)C(=O)NC(C)(C)C(=O)NCC(=O)N1CCC[C@H]1C(=O)N[C@@H](CO)C(=O)N[C@@H](CO)C(=O)NCC(=O)N[C@@H](C)C(=O)N1CCC[C@H]1C(=O)N1CCC[C@H]1C(=O)N1CCC[C@H]1C(=O)N[C@@H](CO)C(N)=O)C(C)C)C(=O)O` [compound 65] (H-H[Aib]QGTFTSDK([γGlu-Palmitoyl])SKYLDERAAQDFVQWLLD[Aib]GPSSGAPPPS-NH2; N-terminus assumed) as the molecule, how does the pEC50 (glucagon receptor; [5]) read?
Its pEC50 is 11.70.

What about the pEC50 (GLP-1 receptor; [5]) of the same molecule?
Its pEC50 is 11.52.

And the pEC50 (GIP receptor [2]; [5])?
Its pEC50 is 11.30.
